# In paper PMC10359466, “Identification of a small-molecule inhibitor that selectively blocks DNA-binding by Trypanosoma brucei replication protein A1” (Nature Communications, 2023):
# Values joined by “and” are separate entries in the source; they are usually repeats but may differ in a detail not shown here. Identical values can stand only once. “Also recorded” adds a separate entry of the source.
# Tests used:
# TcRPA1 DBD-AB [1] = assay: EMSA inhibition of ssDNA binding, TcRPA1 DBD-AB; set-up: species or system T. cruzi
# HeLa = assay: AlamarBlue cell viability of HeLa cells; assay type: cell-based, human
# Experimental: To determine the inhibitory effect of JC-229 on human cells, HeLa and HEK293 cells were suspended in 180 μl D-MEM with 10% FBS and plated at a density of 2 × 10^4 cells/ml in triplicate. […] Percent viability was plotted using GraphPad Prism software. […] We estimated the EC50 values using the concentration of JC-229 that causes a 50% reduction of cell viability (inhibitor vs. normalized response, variable slope).
# T. brucei cells = assay: DNA synthesis assay by BrdU pulse labeling; assay type: cell-based, Trypanosoma brucei; settings: 10 µM, after 8 h of treatment
# Experimental: The 5-Bromo-2′-deoxyuridine (BrdU) incorporation assay was performed as described previously in ref. [49]. BrdU (Sigma-Aldrich, catalog number B5002) was added to cell cultures to a final concentration of 500 μM and incubated for 40 min at 37 °C. About 20 million cells were harvested and fixed in ice-cold 70% ethanol. DNA in fixed cells was denatured in 0.1 N HCl (Fisher Scientific) with 0.5% Tween 20 (Sigma-Aldrich) and 1% BSA (Jackson Immunoresearch) for 20 min at room temperature. To stain newly incorporated DNA, fixed cells were incubated with 1 µg/ml mouse anti-BrdU antibody (BD Pharmingen, catalog number 555627, lot 6084615, dilution 1:500) at room temperature for 2.5 h and then with 4 µg/ml donkey anti-mouse Alexa 488 (Invitrogen, catalog number A-21202, lot 94C2-1, dilution 1:500) at room temperature for 1 h in the dark. Bulk DNA was stained with 5 µg/ml PI by incubating at room temperature for 30 min in the dark. Samples were analyzed by flow cytometry (FACSVia, BD Biosciences) and FlowJo.
# HsRPA complex = molecular target: T1, HsRPA complex (Homo sapiens, UniProt P27694); assay: MST inhibition of ssDNA-binding activity, HsRPA complex; settings: dT32, MST
# T1 construct: made in house; host or cells: E. coli BL21
# T1 sequence (P27694 whole entry): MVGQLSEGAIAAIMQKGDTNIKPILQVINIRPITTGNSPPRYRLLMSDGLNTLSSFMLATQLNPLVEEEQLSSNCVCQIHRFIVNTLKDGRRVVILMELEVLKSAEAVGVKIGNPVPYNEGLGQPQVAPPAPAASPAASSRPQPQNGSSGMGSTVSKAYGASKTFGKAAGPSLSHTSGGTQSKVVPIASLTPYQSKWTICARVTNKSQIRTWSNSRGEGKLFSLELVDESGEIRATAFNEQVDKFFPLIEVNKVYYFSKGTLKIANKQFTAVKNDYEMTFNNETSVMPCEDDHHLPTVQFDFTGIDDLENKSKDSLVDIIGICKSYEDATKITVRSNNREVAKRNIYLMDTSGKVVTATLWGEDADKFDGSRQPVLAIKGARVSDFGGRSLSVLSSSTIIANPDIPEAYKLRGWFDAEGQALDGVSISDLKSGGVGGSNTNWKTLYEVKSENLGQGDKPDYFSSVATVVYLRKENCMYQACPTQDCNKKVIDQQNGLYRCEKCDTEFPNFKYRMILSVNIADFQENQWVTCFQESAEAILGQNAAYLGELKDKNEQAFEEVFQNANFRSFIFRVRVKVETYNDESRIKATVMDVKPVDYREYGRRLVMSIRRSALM
# T1 sequence (P15927 whole entry partner): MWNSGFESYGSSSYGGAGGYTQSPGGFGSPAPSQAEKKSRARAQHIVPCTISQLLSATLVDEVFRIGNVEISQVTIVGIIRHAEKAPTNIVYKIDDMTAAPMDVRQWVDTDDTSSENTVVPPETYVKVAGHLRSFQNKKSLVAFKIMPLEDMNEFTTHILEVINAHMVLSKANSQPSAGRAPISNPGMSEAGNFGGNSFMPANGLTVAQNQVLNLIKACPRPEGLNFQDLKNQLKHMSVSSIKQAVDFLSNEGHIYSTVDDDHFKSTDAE
# T1 sequence (P35244 whole entry partner): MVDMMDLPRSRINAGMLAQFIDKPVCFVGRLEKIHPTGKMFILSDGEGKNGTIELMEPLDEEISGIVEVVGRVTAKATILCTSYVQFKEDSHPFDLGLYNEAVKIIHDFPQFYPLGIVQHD
# Excerpt: (§1) Samples were then loaded into MST capillaries.
# (§2) We used one site binding to obtain a dissociation constant (Kd) and standard 4-parameter logistic curve (Sigmoidal curve) analysis to obtain the IC50 value of JC-229. We used GraphPad Prism software.
# TcRPA1 DBD-AB [2] = assay: MST inhibition of ssDNA-binding activity, TcRPA1 DBD-AB; set-up: species or system T. cruzi; settings: dT32, 30 nM protein
# Excerpt: as §1, §2
# TbRPA complex [3] = molecular target: T2, TbRPA complex (Trypanosoma brucei brucei, UniProt Q384B5); assay: MST inhibition of ssDNA-binding activity, TbRPA complex; set-up: species or system T. brucei
# T2 sequence (Q38DK0 entry or part of it): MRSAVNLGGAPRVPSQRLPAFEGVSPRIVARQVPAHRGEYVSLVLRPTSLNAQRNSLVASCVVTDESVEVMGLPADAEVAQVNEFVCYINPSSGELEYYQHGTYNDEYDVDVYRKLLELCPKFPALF
# T2 sequence (Q57ZN9 entry or part of it, further chain): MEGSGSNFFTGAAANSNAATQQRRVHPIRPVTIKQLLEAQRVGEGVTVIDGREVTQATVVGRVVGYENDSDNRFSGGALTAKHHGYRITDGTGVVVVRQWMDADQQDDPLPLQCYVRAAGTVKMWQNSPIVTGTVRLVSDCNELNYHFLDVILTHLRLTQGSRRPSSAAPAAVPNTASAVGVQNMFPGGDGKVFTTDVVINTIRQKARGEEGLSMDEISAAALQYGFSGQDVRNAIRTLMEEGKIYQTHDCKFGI
# T2 sequence (Q384B5 entry or part of it): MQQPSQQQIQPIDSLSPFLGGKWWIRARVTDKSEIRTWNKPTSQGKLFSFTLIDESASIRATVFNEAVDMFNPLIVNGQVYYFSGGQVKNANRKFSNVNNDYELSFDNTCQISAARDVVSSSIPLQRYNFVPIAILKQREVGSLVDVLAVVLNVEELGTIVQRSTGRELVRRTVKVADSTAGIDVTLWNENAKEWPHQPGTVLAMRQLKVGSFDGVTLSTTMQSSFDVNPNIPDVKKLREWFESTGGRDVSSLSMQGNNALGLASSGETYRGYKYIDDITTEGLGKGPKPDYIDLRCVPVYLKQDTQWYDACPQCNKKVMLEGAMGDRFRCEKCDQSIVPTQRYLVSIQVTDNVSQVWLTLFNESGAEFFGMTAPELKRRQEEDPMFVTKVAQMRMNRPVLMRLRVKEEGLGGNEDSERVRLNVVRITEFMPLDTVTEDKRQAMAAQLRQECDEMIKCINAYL
# Excerpt: as §1, §2
# TbRPA1 DBD-AB = TbRPA1 DBD-AB (Trypanosoma brucei brucei, UniProt Q384B5); assay: MST inhibition of ssDNA-binding activity, TbRPA1 DBD-AB; settings: 4-PL
# Chain of TbRPA1 DBD-AB (Q384B5 entry or part of it): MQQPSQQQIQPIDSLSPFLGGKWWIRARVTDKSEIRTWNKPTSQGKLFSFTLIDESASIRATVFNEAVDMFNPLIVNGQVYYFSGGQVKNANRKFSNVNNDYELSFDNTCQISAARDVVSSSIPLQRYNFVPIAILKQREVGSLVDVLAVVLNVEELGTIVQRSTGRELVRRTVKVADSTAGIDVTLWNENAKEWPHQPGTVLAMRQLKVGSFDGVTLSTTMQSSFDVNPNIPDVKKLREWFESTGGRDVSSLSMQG
# Excerpt: as §1, §2
# LmexRPA1 DBD-AB = assay: MST inhibition of ssDNA-binding activity, LmexRPA1 DBD-AB; set-up: species or system L. mexicana; settings: dT32, MST
# Excerpt: as §1, §2
# TbRPA complex [4] = molecular target: T2, TbRPA complex; assay: EMSA inhibition of ssDNA binding, TbRPA complex
# [5] = system: TbRPA complex containing S105T mutation; assay type: binding, T. brucei; settings: dT32
# [6] = molecular target: T3, HsDBD-F and ATRIP interaction (Homo sapiens, UniProt P27694); assay: MST inhibition of the HsDBD-F binding with ATRIP peptide; settings: 50 nM Cy5-labeled ATRIP peptide
# T3 construct: We purified 6xHis-HsDBD-F (amino acids 1–181), synthesized ATRIP peptide; made in house; host or cells: E. coli BL21 (protein); solid-phase synthesis (peptide)
# T3 sequence (P27694 1-181): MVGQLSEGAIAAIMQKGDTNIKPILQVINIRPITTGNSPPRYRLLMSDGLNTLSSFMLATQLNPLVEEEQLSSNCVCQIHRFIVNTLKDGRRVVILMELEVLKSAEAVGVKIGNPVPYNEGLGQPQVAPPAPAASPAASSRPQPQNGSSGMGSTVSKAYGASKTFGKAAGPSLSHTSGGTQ
# Excerpt: as §1, §2
# TbRPA1 DBD-AB S105T = assay: MST inhibition of ssDNA-binding activity, TbRPA1 DBD-AB S105T mutant; set-up: species or system T. brucei; settings: dT32, 30 nM protein
# Excerpt: as §1, §2
# HsRPA1 DBD-AB [7] = molecular target: T4, HsRPA1 DBD-AB (Homo sapiens, UniProt P27694); assay: MST inhibition of ssDNA-binding activity, HsRPA1 DBD-AB; settings: dT32, MST
# T4 construct: were generated by PCR-amplifying the DBD-AB domain and cloning into a pET28a vector; made in house; host or cells: E. coli BL21
# T4 sequence (P27694 181-427 limits assumed): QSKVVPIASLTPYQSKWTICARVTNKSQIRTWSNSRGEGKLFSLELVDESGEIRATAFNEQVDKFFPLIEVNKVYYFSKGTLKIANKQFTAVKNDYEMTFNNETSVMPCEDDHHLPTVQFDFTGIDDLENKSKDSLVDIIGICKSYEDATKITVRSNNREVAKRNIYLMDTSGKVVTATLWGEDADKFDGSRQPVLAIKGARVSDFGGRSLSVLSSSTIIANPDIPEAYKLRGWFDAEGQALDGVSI
# Excerpt: as §1, §2
# [8] = system: TbRPA1, γH2A, VSG3 protein levels in T. brucei cells; assay: Immunoblotting of TbRPA1, γH2A, VSG3; assay type: cell-based, Trypanosoma brucei; settings: 10 µM
# Excerpt: Cells were harvested at indicated time points and suspended in Laemmli buffer (Bio-Rad) at 0.25 million cells per µl. Denatured proteins from whole cells were separated on a 4–20% gradient SDS-PAGE gel (Bio-Rad) and transferred to a nitrocellulose membrane (GE Healthcare). The membranes were probed with polyclonal antibodies against TbRPA1 (a gift from Bibo Li laboratory, ProSci Inc., ID: 21371, dilution factor 1:1,000) or γH2A (generated by ABclonal for this study, antibody ID E16070 (P), dilution factor 1:1,000), or monoclonal mouse antibodies against VSG3 (Antibody and Bioresource Core facility, MSKCC, catalog number cloneVSG224-11D6, lot EQ.11-Pur.-A, dilution factor 1:1,000) or Tubulin (Sigma, catalog number T7451, clone 6-11B-1, lot 0000149704, dilution 1:5000) in 1x PBS with 0.1% Tween 20 and 1% milk (Bio-Rad) at 4 °C overnight. The membranes were then incubated with secondary antibodies conjugated with Horseradish Peroxidase (HRP) (GE Healthcare; Rabbit HRP: catalog number NA934V, lot 17640116; Mouse HRP: catalog number NA931V, lot 17041904, dilution 1:5000) for the detection of corresponding proteins using chemiluminescence (Hyglo ELC solution from Denville Scientific, catalog number E2400; ChemiDoc Imaging System from Bio-Rad).
# TcRPA1 DBD-AB T105S = molecular target: T5, TcRPA1 DBD-AB T105S (Trypanosoma cruzi, UniProt Q4DXC9, T105S); assay: MST inhibition of ssDNA-binding activity, TcRPA1 DBD-AB T105S mutant; set-up: species or system T. cruzi
# T5 sequence (Q4DXC9 1-247 T105S): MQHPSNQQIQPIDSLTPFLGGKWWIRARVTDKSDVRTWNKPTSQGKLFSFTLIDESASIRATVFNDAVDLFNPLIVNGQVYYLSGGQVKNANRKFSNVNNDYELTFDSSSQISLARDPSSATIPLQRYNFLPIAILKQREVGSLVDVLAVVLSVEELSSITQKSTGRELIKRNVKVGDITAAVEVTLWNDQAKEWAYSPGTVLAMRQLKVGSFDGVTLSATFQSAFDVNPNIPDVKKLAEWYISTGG
# Excerpt: as §1, §2
# HsRPA1 DBD-AB [9] = molecular target: T4, HsRPA1 DBD-AB; assay: EMSA inhibition of ssDNA binding, HsRPA1 DBD-AB; settings: highest concentration 80 µM
compound,measurement,setting,value
"Cc1ccc(C(=O)Nc2ccc(Cl)c(Cl)c2)cc1S(=O)(=O)Nc1ccc(Cl)c(Cl)c1 [JC-229, N-(3,4-dichlorophenyl)−3-(N-(3,4-dichlorophenyl)sulfamoyl)−4-methylbenzamide]",Inhibition of TcRPA1 DBD-AB ssDNA binding (EMSA),TcRPA1 DBD-AB [1],did not inhibit
same,Inhibition of HeLa at EC50 to T. brucei,HeLa; 6.5 µM,barely inhibited
same,EC50,"HeLa; Homo sapiens, HeLa, 72 h, 0.5-50 μM, 72 h, AlamarBlue, inhibitor vs. normalized response, variable slope (Fig. 3f)",32000 nM
same,EC50,"HeLa; Homo sapiens, HeLa, 72 h, Sigmoidal, 4-PL (Suppl. Table 1-B)",13200 nM
same,inhibition at 50 µM,"HeLa; Homo sapiens, HeLa, 50 µM, 72 h, read-out: Inhibition of HeLa at maximum concentration",< 100%
same,New DNA synthesis (BrdU incorporation),T. brucei cells,completely blocked new DNA synthesis; also recorded: completely blocking DNA synthesis
same,"IC50, inhibition of HsRPA complex ssDNA binding",HsRPA complex,No inhibition; also recorded: no inhibitory effect
same,"IC50, inhibition of TcRPA1 DBD-AB ssDNA binding",TcRPA1 DBD-AB [2],No inhibition; also recorded: did not inhibit
same,IC50,"TbRPA complex [3]; dT20, 25 nM complex, MST (Supplementary Fig. 11d)",33.9 nM and ~33.9 nM
same,IC50,"TbRPA complex [3]; dT32, 25 nM complex, MST (Fig. 5d)",24.5 nM
same,IC50,"TbRPA complex [3]; dT32, 25 nM complex, MST (Supplementary Fig. 11d, 18g)",33.9 nM and ~33.9 nM
same,IC50,"TbRPA1 DBD-AB; dT12, 30 nM protein",2800 nM
same,IC50,"TbRPA1 DBD-AB; dT20, 30 nM protein",881 nM
same,IC50,"TbRPA1 DBD-AB; dT32, 30 nM protein",228 nM
same,"IC50, inhibition of LmexRPA1 DBD-AB ssDNA binding",LmexRPA1 DBD-AB,No inhibition; also recorded: did not inhibit
same,Inhibition of TbRPA complex binding to ssDNA (EMSA),TbRPA complex [4],inhibited
same,Effect on ssDNA binding of TbRPA S105T mutant complex (EMSA),[5],not affected
same,IC50,[6],~60000 nM and 60800 nM
same,"IC50, inhibition of TbRPA1 DBD-AB S105T ssDNA binding",TbRPA1 DBD-AB S105T,No inhibition; also recorded: did not inhibit
same,"IC50, inhibition of HsRPA1 DBD-AB ssDNA binding",HsRPA1 DBD-AB [7],No inhibition; also recorded: no inhibitory effect
same,Levels of VSG3,[8],increased
same,Levels of γH2A,[8],increased
same,TbRPA1 protein levels,[8],did not change
same,IC50,TcRPA1 DBD-AB T105S,159000 nM
same,Inhibition of ssDNA binding of HsDBD-AB (EMSA),HsRPA1 DBD-AB [9],did not inhibit
